From US8361964B2, “Growth hormone releasing factor (GRF) analogs and uses thereof” (Theratechnologies Inc., priority 2011, dated 2013)
Where a SMILES comes first, the peptide text is derived from it.

Columns and labels:
human GRF receptor = target: T1, human GRF receptor (Homo sapiens, UniProt Q02643); test: Alkaline phosphatase (AP) assay, GHRHr agonist activity; format: cell-based; settings: BHK cells stably expressing human GRF receptor and alkaline phosphatase reporter gene; 24 hrs stimulation; read-out: EC50 (nM) as assessed by alkaline phosphatase (AP) induction
T1 construct: expressed in transfected cells; host or cells: baby hamster kidney (BHK) cells, stably transfected
T1 sequence (Q02643 23-423): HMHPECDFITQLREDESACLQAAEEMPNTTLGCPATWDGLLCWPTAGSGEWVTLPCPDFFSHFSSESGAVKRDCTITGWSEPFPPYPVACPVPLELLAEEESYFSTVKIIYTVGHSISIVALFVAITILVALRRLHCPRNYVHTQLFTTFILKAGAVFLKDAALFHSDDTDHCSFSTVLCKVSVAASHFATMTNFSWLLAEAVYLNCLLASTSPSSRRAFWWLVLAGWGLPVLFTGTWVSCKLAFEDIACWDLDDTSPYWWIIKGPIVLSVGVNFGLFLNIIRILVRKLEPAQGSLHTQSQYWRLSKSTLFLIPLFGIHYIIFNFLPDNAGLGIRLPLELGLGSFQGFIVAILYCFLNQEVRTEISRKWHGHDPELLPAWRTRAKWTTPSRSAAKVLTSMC
Experimental: The activity of representative GRF peptides was tested on baby hamster kidney (BHK) cells stably transfected to express the human GRF receptor and an alkaline phosphatase reporter gene. Cells were cultured 24 hours before stimulation, in 96-well plates, at a concentration of 0.5×10^5 cells/well. Before stimulation, cells were washed twice with DPBS and incubated 10-30 min in assay buffer (DMEM without phenol red supplemented with 20 mM HEPES and 1% heat inactivated fetal bovine serum (FBS). The dose response curve of the GRF peptides was done for 24 hrs with concentrations of peptides from 10^−5 M to 10^−11 M. Supernatant was collected and analysis of alkaline phosphatase levels was performed using the Alkaline Phosphatase detection kit from Applied Biosystems.
The in vitro activity of representative GRF analogs was tested on baby hamster kidney (BHK) cells expressing human GHRHr.

Growth Hormone secretion [1] = test: Growth Hormone secretion in female mice after subcutaneous GRF analog; format: in vivo; settings: female CD-1 mice; 10 μg/mouse subcutaneous; plasma 10 minutes after injection
In short: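 Female CD-1 mice (20–25 g) got a subcutaneous dose of 10 μg/mouse GRF analog in 20 mM sodium acetate + 5% mannitol, pH 5. Plasma was taken by cardiac puncture 10 min after dosing into K3EDTA. GH was measured by rat/mouse GH ELISA on 20-fold diluted plasma.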

Growth Hormone secretion [2] = test: Growth Hormone secretion in female rats after subcutaneous GRF analog; format: in vivo; settings: female Sprague-Dawley rats; 10 μg/rat subcutaneous; plasma 0-60 minutes
In short: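 Female Sprague-Dawley rats (250–300 g), isoflurane-anaesthetised with carotid cannula, got GRF analog 10 μg/rat s.c. in 20 mM AcONa + 5% mannitol, pH 5. Blood was drawn at 0, 10, 20, 30, 45 and 60 min (4–8 rats per group per time point). Plasma GH was measured by rat/mouse GH ELISA on 20-fold diluted samples.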

[3] = following intravenous injection in humans; cited from earlier work

EC50 (human GRF receptor)	Compound	GH levels 10 min (Growth Hormone secretion [1])	Mean AUC (GH Area Under the curve, GH concentration over time) (Growth Hormone secretion [2])	Mean Cmax (ng/ml) of Growth Hormone secretion (Growth Hormone secretion [2])	half-life [3]
0.11 nM	CC[C@H](C)[C@H](NC(=O)[C@H](C)NC(=O)[C@H](CC(=O)O)NC(=O)[C@@H](C)NC(=O)[C@@H](N)Cc1ccc(O)cc1)C(=O)N[C@@H](Cc1ccccc1)C(=O)N[C@H](C(=O)N[C@@H](CC(=O)O)C(=O)N[C@@H](CO)C(=O)N[C@@H](Cc1ccc(O)cc1)C(=O)N[C@@H](CCCNC(=N)N)C(=O)N[C@@H](CCCCN)C(=O)N[C@H](C(=O)N[C@@H](CC(C)C)C(=O)N[C@@H](C)C(=O)N[C@@H](CCC(N)=O)C(=O)N[C@@H](CC(C)C)C(=O)N[C@@H](CCCCN)C(=O)N[C@@H](C)C(=O)N[C@@H](CCCNC(=N)N)C(=O)N[C@@H](CCC(N)=O)C(=O)N[C@@H](CC(=O)O)C(=O)N[C@H](C(=O)N[C@@H](CC(C)C)C(=O)N[C@@H](C)C(=O)N[C@@H](CCCNC(=N)N)C(=O)N[C@@H](C)C(=O)N[C@@H](C)C(=O)N[C@@H](CCCNC(=N)N)C(=O)N[C@@H](C)C(=O)N[C@@H](C)C(=O)N[C@@H](CCCNC(=N)N)C(N)=O)[C@@H](C)CC)C(C)C)[C@@H](C)O [SEQ ID NO: 28, Y-a-DAIFTDSYRKVLAQLKARQDILARAARAAR-NH2] (HELM PEPTIDE1{Y.[dA].D.A.I.F.T.D.S.Y.R.K.V.L.A.Q.L.K.A.R.Q.D.I.L.A.R.A.A.R.A.A.R.[am]}$$$$V2.0)	449.7 ng/mL	17633	806.2 ng/mL	–
–	Tyr-Ala-Asp-Ala-Ile-Phe-Thr-Asn-Ser-Tyr-Arg-Lys-Val-Leu-Gly-Gln-Leu-Ser-Ala-Arg-Lys-Leu-Leu-Gln-Asp-Ile-Met-Ser-Arg [hGRF(1-29)]	–	–	–	approximately 12 min
